The values below are quoted from earlier work in patent US20100166671A1, “ORGANIC COMPOUNDS” (priority 2006, published 2010).

For this series the following is noted: single administration of a metered dose, aerosol formulation, treating asthma.

As to `C[N+]1(C)CCC(OC(=O)C(O)(c2ccccc2)C2CCCC2)C1.[Br-]` (stereo not shown) [glycopyrrolate, 3-[(cyclopentyl-hydroxyphenylacetyl)oxy]-1,1-dimethylpyrrolidinium bromide], the duration of bronchodilation result is reported as “up to 12 hours”.
